The values below come from paper PMC9611521, “Optimization of Resveratrol Used as a Scaffold to Design Histone Deacetylase (HDAC-1 and HDAC-2) Inhibitors” (Pharmaceuticals, 2022).

As a reminder, the inhibition is the share of the control response that was lost under treatment.

Common to all, as to type: biochemical
Conditions in all cases: compound at 10 µM

In one test the target is HDAC-5 (Homo sapiens, UniProt Q9UQL6). The test can be described thus: Enzymatic HDAC selectivity panel, HDAC-5. The procedure:
(§1) Enzymatic assays to evaluate HDAC inhibition were performed, and the design involved three steps: (a) Preliminary screening to identify the most promising compounds; (b) Evaluation by a panel of HDAC isoforms to investigate selectivity; and (c) Determination of IC50 values. Firstly, compounds (4–7; 15–26) were evaluated at 10 µM against HDAC-1 and HDAC-2 (Table 2).
(§2) The enzymatic assay to evaluate HDAC inhibitory effects for all final compounds against the distinct isoforms was carried out in accordance with the previously described procedures (Lopes et al., 2021). All compounds were initially screened at 10 µM against HDAC-1 and HDAC-2. […] All the compounds were dissolved in DMSO. A serial dilution of the compounds was performed in 100% DMSO with the highest concentration at 1 mM. Each intermediate compound dilution (in 100% DMSO) was diluted 10x in assay buffer to form a 10% DMSO intermediate dilution in HDAC assay buffer. 5 µL of this dilution was added to a 50 µL reaction to bring the final concentration of DMSO to 1% in all the reactions. […] The fluorescence intensity was measured at an excitation of 360 nm and emission of 460 nm using a Tecan Infinite M1000 microplate reader, and the percentage of activity was calculated using the formula: % activity = (F − Fb)/(Ft − Fb), where F = the intensity of fluorescence in the presence of the compound. […]

For a further test, the target named is T1, HDAC-7 (Homo sapiens, UniProt Q8WUI4).
T1 sequence (Q8WUI4 1-952): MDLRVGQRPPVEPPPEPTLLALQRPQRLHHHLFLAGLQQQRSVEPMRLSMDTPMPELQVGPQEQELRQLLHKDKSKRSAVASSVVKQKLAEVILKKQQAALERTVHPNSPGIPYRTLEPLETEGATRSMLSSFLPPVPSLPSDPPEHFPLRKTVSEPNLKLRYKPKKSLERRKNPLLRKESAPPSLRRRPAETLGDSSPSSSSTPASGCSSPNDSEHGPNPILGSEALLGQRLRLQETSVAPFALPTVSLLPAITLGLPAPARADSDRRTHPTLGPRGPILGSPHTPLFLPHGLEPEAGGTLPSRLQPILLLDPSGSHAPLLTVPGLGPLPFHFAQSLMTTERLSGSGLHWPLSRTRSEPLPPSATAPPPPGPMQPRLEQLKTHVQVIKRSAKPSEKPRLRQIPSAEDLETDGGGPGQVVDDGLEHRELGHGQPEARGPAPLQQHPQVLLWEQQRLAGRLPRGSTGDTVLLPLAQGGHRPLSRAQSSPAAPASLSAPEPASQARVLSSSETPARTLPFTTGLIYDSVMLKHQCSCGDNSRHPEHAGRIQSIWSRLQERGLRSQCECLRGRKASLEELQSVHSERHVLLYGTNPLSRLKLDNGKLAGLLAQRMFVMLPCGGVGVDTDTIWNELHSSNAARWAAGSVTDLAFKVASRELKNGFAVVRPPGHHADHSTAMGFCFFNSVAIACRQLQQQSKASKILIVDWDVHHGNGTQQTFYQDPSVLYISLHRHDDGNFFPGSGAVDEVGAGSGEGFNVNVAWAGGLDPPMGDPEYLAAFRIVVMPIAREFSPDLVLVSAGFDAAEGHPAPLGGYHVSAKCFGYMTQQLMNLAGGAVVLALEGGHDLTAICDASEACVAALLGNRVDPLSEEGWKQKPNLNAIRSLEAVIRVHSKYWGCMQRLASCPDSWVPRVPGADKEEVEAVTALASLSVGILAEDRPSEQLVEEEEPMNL
Description: Enzymatic HDAC selectivity panel, HDAC-7. Here is the method:
as §1, §2

Another test concerns the target T2, HDAC-10 (Homo sapiens, UniProt Q969S8).
T2 sequence (Q969S8 1-669): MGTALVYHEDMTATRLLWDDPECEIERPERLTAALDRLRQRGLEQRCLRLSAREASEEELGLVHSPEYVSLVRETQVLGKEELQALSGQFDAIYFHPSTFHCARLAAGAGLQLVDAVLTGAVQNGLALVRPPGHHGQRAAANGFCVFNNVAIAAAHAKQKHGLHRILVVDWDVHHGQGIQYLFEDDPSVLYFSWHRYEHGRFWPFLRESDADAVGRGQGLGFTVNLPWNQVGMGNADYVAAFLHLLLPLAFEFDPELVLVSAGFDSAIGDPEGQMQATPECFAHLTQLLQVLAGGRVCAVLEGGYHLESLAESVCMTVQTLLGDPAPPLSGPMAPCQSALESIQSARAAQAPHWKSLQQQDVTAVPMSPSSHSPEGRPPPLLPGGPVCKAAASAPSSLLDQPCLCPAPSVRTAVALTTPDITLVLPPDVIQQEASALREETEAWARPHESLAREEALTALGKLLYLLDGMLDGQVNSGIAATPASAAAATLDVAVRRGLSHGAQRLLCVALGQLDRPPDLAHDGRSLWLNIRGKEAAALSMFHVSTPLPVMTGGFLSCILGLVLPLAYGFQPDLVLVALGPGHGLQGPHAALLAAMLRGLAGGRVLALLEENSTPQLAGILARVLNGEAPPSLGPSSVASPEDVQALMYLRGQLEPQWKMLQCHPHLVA
The test can be described thus: Enzymatic HDAC selectivity panel, HDAC-10. Here is the method:
as §1, §2

Sequence of HDAC-5 (Q9UQL6 whole entry, canonical isoform): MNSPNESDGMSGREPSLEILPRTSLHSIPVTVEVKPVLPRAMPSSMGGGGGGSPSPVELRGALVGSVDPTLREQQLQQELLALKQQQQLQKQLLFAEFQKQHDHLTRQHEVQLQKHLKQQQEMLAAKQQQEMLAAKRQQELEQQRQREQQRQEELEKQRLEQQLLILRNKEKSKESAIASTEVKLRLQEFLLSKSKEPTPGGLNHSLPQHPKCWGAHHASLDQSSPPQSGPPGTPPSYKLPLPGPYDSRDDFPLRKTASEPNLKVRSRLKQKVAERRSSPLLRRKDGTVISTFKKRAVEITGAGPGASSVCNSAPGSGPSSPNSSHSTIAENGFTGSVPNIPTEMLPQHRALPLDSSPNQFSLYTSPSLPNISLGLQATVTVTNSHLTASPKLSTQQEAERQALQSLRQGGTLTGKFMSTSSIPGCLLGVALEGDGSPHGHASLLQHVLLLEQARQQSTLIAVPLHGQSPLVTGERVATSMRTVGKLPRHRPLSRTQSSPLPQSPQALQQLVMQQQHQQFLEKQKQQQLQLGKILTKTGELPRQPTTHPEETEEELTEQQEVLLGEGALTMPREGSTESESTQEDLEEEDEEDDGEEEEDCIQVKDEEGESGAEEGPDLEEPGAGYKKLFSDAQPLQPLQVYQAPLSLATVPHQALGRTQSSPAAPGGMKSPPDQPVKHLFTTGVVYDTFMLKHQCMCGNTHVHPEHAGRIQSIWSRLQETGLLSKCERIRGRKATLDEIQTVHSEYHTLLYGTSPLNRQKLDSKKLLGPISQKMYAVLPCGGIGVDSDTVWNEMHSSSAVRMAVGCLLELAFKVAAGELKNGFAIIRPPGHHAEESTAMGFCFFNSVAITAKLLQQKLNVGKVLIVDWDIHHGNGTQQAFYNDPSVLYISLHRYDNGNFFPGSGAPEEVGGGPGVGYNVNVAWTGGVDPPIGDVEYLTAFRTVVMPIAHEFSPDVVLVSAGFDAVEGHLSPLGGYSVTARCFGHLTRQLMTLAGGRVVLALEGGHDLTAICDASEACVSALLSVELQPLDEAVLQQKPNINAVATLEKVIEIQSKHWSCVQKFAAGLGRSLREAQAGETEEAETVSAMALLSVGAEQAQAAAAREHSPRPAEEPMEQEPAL

With `Nc1ccc(CCc2ccc(C(=O)Nc3ccccc3N)cc2)cc1` [Compound (5)], the inhibition at 10 µM at HDAC-5 was determined as 5 ± 0.5%; at HDAC-7, 15 ± 0.7%; against HDAC-10, 60 ± 1.4%.
